Assay results published in ChEMBL document CHEMBL5154866 (J Med Chem, 2022).

Experiments:
[1] = target: High affinity nerve growth factor receptor (Homo sapiens, UniProt P04629); assay: Inhibition of N-terminal hexahistidine tagged TRKA (485 to 795 residues) (unknown origin) expressed in Sf9 cells using Ser/Thr 06 peptide as substrate incubated for 1 hr in presence of 400 uM ATP by FRET based Z'-Lyte assay
[2] = target: High affinity nerve growth factor receptor (Homo sapiens, UniProt P04629, G667C); assay: Inhibition of TRKA G667C mutant (unknown origin) using Ser/Thr 06 peptide as substrate incubated for 1 hr in presence of 400 uM ATP by FRET based Z'-Lyte assay
[3] = target: High affinity nerve growth factor receptor (Homo sapiens, UniProt P04629, G595R); assay: Inhibition of TRKA G595R mutant (unknown origin) by HTRF assay
BaF3 [4] = assay: Antiproliferative activity against mouse BaF3 cells expressing CD74 fused TRKA assessed as cell growth inhibition incubated for 3 days by CCK8 assay; details: BaF3, 72 h
BaF3 [5] = assay: Antiproliferative activity against mouse BaF3 cells expressing ETV6 fused TRKC assessed as cell growth inhibition incubated for 3 days by CCK8 assay; details: BaF3, 72 h
BaF3 [6] = assay: cells; details: Mus musculus, BaF3, 72 h
BaF3 [7] = assay: cells; details: Mus musculus, BaF3, 72 h; remark: listed apart in the source
[8] = target: Epithelial discoidin domain-containing receptor 1 (Homo sapiens, UniProt Q08345); assay: Inhibition of human wild type partial length DDR1(R565 to V876 residue) expressed in bacterial expression system by Kinomescan method
[9] = target: T1, Discoidin domain-containing receptor 2 (Homo sapiens, UniProt Q16832); assay: Inhibition of human wild type partial length DDR2 (V555 to E855 residues) expressed in mammalian expression system by Kinomescan method
T1 sequence (Q16832 whole entry): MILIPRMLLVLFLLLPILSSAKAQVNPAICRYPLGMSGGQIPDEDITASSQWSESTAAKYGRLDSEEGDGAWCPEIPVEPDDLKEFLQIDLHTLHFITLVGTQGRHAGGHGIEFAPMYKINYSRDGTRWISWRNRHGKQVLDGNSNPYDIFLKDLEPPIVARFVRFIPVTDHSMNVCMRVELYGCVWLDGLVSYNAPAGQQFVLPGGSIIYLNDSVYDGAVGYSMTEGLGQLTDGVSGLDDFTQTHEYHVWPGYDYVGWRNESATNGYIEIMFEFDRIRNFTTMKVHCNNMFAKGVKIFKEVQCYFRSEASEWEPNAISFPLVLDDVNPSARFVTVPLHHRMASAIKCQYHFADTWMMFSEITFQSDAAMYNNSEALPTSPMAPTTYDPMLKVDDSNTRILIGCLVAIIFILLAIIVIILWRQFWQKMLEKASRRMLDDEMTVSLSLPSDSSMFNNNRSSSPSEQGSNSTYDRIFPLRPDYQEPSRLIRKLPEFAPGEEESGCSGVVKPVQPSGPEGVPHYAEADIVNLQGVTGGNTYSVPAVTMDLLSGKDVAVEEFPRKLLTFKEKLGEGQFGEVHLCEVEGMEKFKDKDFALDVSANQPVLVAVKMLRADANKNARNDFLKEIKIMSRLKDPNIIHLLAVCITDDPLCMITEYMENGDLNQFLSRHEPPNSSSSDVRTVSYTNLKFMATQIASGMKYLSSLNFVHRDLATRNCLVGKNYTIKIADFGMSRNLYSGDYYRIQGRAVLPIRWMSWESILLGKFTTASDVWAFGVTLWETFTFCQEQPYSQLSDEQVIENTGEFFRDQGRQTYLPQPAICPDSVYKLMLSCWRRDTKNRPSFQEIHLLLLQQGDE

Ephrin type-A receptor 7 = Ephrin type-A receptor 7 (Homo sapiens, UniProt Q15375); assay: Inhibition of human wild type partial length EphA7 (Y608 to S912 residues) expressed in bacterial expression system by Kinomescan method
Angiopoietin-1 receptor = Angiopoietin-1 receptor (Homo sapiens, UniProt Q02763); assay: Inhibition human wild type partial length Tie2 (N804 to T1112 residues) expressed in bacterial expression system by Kinomescan method
[10] = AUC (0 to t) in Sprague-Dawley rat at 10 mg/kg, po measured upto 24 hrs by LC-MS/MS analysis; type: ADME, organism-based; set-up: time < 24 hrs, dose 10 mg/kg, route po; details: in vivo
[11] = Cmax in Sprague-Dawley rat at 10 mg/kg, po measured upto 24 hrs by LC-MS/MS analysis; type: ADME, organism-based; set-up: dose 10 mg/kg, time < 24 hrs, route po; details: in vivo
BaF3 [12] = assay: Antiproliferative activity against mouse BaF3 cells expressing ETV6 fused TRKC G623E mutant incubated for 3 days by CCK8 assay; details: BaF3, 72 h
BaF3 [13] = assay: Antiproliferative activity against mouse BaF3 cells expressing CD74 fused TRKA G667A mutant incubated for 3 days by CCK8 assay; details: BaF3, 72 h
BaF3 [14] = assay: Antiproliferative activity against mouse BaF3 cells expressing CD74 fused TRKA G667S mutant incubated for 3 days by CCK8 assay; details: BaF3, 72 h
BaF3 [15] = assay: Antiproliferative activity against mouse BaF3 cells expressing ETV6 fused TRKC G696C mutant incubated for 3 days by CCK8 assay; details: BaF3, 72 h
BaF3 [16] = assay: Antiproliferative activity against mouse BaF3 cells expressing ETV6 fused TRKC G696A mutant incubated for 3 days by CCK8 assay; details: BaF3, 72 h
BaF3 [17] = assay: Antiproliferative activity against mouse BaF3 cells expressing ETV6 fused TRKC G623R mutant incubated for 3 days by CCK8 assay; details: BaF3, 72 h
BaF3 [18] = assay: Antiproliferative activity against mouse BaF3 cells expressing ETV6 fused TRKC V573M mutant incubated for 3 days by CCK8 assay; details: BaF3, 72 h
BaF3 [19] = assay: Antiproliferative activity against mouse BaF3 cells expressing ETV6 fused TRKC G696S mutant incubated for 3 days by CCK8 assay; details: BaF3, 72 h
[20] = Antiproliferative activity against human KM12-Luc cells assessed as inhibition of cell growth incubated for 3 days by CCK8 assay; type: functional, cell-based; details: 72 h
BaF3 [21] = assay: Antiproliferative activity against mouse BaF3 cells assessed as inhibition of cell growth incubated for 3 days by CCK8 assay; type: functional, cell-based; details: BaF3, 72 h

Chain of Angiopoietin-1 receptor (Q02763 whole entry, the tested form may be a part): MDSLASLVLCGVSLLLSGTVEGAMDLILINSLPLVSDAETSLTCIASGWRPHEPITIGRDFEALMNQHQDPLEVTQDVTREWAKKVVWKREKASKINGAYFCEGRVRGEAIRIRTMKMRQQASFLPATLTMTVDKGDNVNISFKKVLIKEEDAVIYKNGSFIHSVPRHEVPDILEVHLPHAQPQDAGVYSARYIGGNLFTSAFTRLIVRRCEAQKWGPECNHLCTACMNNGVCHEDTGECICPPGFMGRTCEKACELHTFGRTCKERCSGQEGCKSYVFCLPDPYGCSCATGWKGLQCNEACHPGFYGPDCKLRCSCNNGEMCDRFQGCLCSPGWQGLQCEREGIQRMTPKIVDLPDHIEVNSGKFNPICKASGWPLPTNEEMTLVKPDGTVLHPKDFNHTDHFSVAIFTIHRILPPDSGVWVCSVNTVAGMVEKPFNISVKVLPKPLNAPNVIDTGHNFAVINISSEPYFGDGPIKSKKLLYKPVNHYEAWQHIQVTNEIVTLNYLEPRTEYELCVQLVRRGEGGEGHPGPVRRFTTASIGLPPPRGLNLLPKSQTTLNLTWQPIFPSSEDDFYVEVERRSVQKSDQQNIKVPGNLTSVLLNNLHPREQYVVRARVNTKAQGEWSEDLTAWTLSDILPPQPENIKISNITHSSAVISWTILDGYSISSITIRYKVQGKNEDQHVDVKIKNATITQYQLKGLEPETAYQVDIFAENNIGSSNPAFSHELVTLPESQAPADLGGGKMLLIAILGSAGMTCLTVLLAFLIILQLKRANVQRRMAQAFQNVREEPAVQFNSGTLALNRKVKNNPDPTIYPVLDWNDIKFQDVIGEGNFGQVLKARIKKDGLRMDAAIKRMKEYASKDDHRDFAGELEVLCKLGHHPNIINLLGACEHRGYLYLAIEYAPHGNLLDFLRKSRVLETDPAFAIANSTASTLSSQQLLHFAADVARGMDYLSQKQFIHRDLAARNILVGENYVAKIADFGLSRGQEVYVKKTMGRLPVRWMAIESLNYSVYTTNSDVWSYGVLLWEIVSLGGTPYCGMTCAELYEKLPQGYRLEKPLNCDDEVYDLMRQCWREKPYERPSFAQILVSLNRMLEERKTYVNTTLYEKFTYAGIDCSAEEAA
Chain of High affinity nerve growth factor receptor (Homo sapiens, UniProt P04629, G667C) (P04629 33-796 G667C limits assumed): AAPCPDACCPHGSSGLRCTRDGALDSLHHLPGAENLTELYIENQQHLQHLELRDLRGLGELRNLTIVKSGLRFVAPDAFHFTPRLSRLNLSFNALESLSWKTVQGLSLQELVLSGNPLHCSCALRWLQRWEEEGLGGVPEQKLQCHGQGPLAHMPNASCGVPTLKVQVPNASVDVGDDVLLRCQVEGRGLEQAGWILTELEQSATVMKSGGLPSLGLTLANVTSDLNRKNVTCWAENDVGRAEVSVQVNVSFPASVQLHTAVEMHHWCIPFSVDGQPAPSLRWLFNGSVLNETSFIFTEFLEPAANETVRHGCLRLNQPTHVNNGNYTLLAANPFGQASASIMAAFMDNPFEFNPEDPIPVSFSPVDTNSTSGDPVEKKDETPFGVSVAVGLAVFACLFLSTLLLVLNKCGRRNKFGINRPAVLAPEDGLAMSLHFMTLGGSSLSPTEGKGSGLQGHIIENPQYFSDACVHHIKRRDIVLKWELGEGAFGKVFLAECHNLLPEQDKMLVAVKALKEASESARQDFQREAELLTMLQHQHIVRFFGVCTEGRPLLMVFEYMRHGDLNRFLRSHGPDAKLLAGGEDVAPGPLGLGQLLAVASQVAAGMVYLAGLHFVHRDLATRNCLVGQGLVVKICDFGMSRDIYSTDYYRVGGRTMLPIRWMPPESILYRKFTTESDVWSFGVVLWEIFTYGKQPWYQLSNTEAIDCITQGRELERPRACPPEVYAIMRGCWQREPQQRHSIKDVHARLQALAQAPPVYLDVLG
Chain of High affinity nerve growth factor receptor (Homo sapiens, UniProt P04629) (P04629 whole entry, the tested form may be a part): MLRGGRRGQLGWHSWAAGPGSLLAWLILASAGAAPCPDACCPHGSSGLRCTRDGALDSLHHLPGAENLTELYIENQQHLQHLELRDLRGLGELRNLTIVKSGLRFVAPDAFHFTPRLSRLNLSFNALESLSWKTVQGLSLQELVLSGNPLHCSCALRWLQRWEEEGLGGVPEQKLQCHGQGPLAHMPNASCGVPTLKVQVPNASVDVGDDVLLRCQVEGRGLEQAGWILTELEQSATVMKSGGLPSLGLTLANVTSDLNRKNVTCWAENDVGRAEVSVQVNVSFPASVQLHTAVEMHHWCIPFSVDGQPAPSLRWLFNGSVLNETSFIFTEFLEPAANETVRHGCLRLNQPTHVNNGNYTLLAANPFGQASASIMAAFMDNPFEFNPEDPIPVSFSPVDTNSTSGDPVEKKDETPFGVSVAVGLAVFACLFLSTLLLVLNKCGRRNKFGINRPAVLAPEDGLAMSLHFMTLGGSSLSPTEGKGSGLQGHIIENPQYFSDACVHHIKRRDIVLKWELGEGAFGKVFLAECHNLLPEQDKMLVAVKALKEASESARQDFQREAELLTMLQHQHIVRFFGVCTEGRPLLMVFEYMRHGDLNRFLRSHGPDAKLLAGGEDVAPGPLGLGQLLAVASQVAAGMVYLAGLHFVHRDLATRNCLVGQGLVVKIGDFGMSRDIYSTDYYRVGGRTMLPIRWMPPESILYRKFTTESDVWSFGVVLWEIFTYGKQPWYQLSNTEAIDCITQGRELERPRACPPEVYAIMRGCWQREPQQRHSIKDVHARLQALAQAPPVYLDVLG
Chain of Epithelial discoidin domain-containing receptor 1 (Q08345 whole entry, the tested form may be a part): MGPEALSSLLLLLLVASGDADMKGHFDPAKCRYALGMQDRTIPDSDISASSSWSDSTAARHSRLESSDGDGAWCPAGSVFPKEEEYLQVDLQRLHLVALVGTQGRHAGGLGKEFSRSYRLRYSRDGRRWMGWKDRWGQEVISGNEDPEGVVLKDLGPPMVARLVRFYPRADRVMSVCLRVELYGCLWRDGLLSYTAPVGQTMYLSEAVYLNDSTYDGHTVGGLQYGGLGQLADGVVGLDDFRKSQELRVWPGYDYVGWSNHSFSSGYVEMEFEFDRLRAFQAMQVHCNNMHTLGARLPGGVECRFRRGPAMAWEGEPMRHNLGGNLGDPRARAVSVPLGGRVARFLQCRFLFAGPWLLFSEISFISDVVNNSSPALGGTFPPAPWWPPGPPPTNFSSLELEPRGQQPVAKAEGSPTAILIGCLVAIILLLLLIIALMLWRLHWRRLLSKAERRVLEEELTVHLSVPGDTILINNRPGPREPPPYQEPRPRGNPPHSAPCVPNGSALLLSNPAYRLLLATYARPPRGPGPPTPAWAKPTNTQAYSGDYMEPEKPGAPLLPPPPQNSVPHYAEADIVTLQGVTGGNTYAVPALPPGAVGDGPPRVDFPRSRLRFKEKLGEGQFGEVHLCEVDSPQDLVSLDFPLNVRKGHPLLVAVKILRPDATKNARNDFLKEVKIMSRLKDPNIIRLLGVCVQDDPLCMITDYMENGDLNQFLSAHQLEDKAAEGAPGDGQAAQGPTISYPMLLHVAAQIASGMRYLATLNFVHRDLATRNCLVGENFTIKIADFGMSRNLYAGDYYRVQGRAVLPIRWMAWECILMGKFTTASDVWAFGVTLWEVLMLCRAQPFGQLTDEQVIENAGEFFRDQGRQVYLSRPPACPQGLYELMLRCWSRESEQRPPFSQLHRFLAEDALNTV
Chain of High affinity nerve growth factor receptor (Homo sapiens, UniProt P04629, G595R) (P04629 33-796 G595R limits assumed): as the sequence (P04629 33-796 G667C limits assumed) above, with G563R, C635G counted along it
Chain of Ephrin type-A receptor 7 (Q15375 whole entry, the tested form may be a part): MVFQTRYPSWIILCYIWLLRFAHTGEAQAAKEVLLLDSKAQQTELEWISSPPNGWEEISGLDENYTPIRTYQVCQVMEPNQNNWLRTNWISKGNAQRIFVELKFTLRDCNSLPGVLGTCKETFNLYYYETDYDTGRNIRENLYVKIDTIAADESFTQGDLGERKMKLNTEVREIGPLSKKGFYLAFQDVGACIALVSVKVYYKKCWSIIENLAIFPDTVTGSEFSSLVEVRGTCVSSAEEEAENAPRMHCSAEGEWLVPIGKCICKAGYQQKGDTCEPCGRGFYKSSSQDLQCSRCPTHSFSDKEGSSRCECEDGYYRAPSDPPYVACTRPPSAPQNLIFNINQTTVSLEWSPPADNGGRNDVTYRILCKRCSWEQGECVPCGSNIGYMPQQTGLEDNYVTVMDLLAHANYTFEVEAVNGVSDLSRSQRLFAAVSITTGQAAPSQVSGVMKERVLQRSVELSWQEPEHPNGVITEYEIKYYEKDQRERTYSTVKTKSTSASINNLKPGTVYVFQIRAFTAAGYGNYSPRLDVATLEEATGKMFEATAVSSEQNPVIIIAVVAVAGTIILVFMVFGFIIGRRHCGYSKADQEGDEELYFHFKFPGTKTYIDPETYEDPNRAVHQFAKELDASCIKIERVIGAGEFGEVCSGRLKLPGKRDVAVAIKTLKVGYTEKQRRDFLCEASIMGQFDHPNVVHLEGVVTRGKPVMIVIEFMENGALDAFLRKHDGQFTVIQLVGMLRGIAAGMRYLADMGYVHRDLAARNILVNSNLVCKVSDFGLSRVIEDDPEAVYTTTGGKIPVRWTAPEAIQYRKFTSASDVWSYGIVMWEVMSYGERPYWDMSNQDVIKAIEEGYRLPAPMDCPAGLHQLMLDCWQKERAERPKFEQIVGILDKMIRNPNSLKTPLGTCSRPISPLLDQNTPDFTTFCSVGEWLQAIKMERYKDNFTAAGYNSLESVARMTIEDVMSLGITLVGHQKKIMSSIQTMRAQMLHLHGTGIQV

With `Cc1c2cc(cc1C(=O)Nc1cc(CN3CCN(C)CC3)cc(C(F)(F)F)c1)OCCCCC(=O)NCCN(C)c1ccc3ncc(n3n1)C#C2` as the compound, how does the IC50 [1] read?
Its IC50 is 0.0078 µM.

What about the IC50 [2] of the same compound?
The IC50 was 0.0027 µM.

And the IC50 [3]?
Its IC50 is 0.0806 µM.

What about the IC50 (BaF3 [4]) of the same compound?
The IC50 was 0.14 µM.

What about the IC50 (BaF3 [5]) of the same compound?
The IC50 was 0.18 µM.

What about the IC50 (BaF3 [6]) of the same compound?
The IC50 was 0.035 µM.

What about the IC50 (BaF3 [7]) of the same compound?
Its IC50 is 0.52 µM.

Which results are given for `Cc1cn(-c2cc(NC(=O)c3cc4cc(c3C)C#Cc3cnc5ccc(nn35)N(C)CCNC(=O)CCCCO4)cc(C(F)(F)F)c2)cn1`?
IC50 [8]: 0.0264 µM; IC50 [9]: 0.313 µM; IC50 (Ephrin type-A receptor 7): 0.162 µM; IC50 (Angiopoietin-1 receptor): 0.217 µM; AUC(0-t) at 24 h [10]: 0.0516 µg·h/mL; Cmax [11]: 0.0191 µg/mL

With `O=C(Nc1cnn2ccc(N3CCC[C@@H]3c3cc(F)ccc3F)nc12)N1CC[C@H](O)C1` [LAROTRECTINIB] as the compound, how does the IC50 (BaF3 [12]) read?
The IC50 was 0.096 µM.

What about the IC50 (BaF3 [4]) of the same compound?
Its IC50 is 0.009 µM.

And the IC50 (BaF3 [5])?
The IC50 was 0.007 µM.

What about the IC50 (BaF3 [13]) of the same compound?
The IC50 was 0.0101 µM.

And the IC50 (BaF3 [14])?
Its IC50 is 0.0382 µM.

What about the IC50 (BaF3 [15]) of the same compound?
The IC50 was 0.332 µM.

What about the IC50 (BaF3 [16]) of the same compound?
Its IC50 is 0.0148 µM.

What about the IC50 (BaF3 [17]) of the same compound?
Its IC50 is greater than 1 µM.

What about the IC50 (BaF3 [18]) of the same compound?
Its IC50 is 0.173 µM.

What about the IC50 (BaF3 [6]) of the same compound?
Its IC50 is 0.11 µM.

What about the IC50 (BaF3 [7]) of the same compound?
Its IC50 is 1.55 µM.

Which IC50 (BaF3 [12]) does the source give for `C[C@@H]1CCc2ncc(F)cc2[C@H]2CCCN2c2ccn3ncc(c3n2)C(=O)N1` [SELITRECTINIB] here?
Its IC50 is 0.0057 µM.

What about the IC50 (BaF3 [13]) of the same compound?
The IC50 was 0.0032 µM.

And the IC50 (BaF3 [14])?
The IC50 was 0.0105 µM.

And the IC50 (BaF3 [15])?
The IC50 was 0.0282 µM.

And the IC50 (BaF3 [16])?
Its IC50 is 0.0024 µM.

What about the IC50 (BaF3 [19]) of the same compound?
Its IC50 is 0.0082 µM.

What about the IC50 (BaF3 [17]) of the same compound?
The IC50 was 0.0085 µM.

And the IC50 (BaF3 [18])?
The IC50 was 0.0107 µM.

What about the IC50 [20] of the same compound?
Its IC50 is 0.0023 µM.

And the IC50 (BaF3 [21])?
Its IC50 is greater than 10 µM.

What about the IC50 (BaF3 [6]) of the same compound?
Its IC50 is 0.041 µM.
